Results taken from PubChem BioAssay AID192 (DTP/NCI, 2004).
Several values for one entry are separate records, joined by “and”; a condition that tells them apart may be missing. Equal values may be shown once. Inconclusive results and toxic doses are left out. How the source made its calls: active means survival T/C of 150% or more; inactive means T/C below 125% in these data.

Test system: BDF1 mice, B16 melanoma ip, median survival T/C
Assay: NCI In Vivo Anticancer Drug Screen. Data for tumor model B16 Melanoma (intraperitoneal) in B6D2F1 (BDF1) mice
Details: endpoint: median survival time, higher = longer survival
In short: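 Tumor-bearing mice received test compound or vehicle. Survival or tumor size was then measured in both groups. The treated-group figure was divided by the control-group figure.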

[1] = dose: 100.0 mg/kg/injection, schedule: Q01DX009 (ip), vehicle: Klucel (hydroxypropylcellulose) (HPC)
[2] = dose: 200.0 mg/kg/injection, schedule: Q01DX009 (ip), vehicle: Klucel (hydroxypropylcellulose) (HPC)
[3] = dose: 400.0 mg/kg/injection, schedule: Q01DX009 (ip), vehicle: Klucel (hydroxypropylcellulose) (HPC)
[4] = dose: 6.25 mg/kg/injection, schedule: Q01DX009 (ip), vehicle: water
[5] = dose: 12.5 mg/kg/injection, schedule: Q01DX009 (ip), vehicle: water
[6] = dose: 25.0 mg/kg/injection, schedule: Q01DX009 (ip), vehicle: water
[7] = dose: 6.25 mg/kg/injection, schedule: Q01DX009 (ip), vehicle: Klucel (hydroxypropylcellulose) (HPC)
[8] = dose: 12.5 mg/kg/injection, schedule: Q01DX009 (ip), vehicle: Klucel (hydroxypropylcellulose) (HPC)
[9] = dose: 25.0 mg/kg/injection, schedule: Q01DX009 (ip), vehicle: Klucel (hydroxypropylcellulose) (HPC)
[10] = dose: 50.0 mg/kg/injection, schedule: Q01DX009 (ip), vehicle: Klucel (hydroxypropylcellulose) (HPC)
[11] = dose: 100.0 mg/kg/injection, schedule: Q01DX009 (ip), vehicle: saline with Tween-80
[12] = dose: 200.0 mg/kg/injection, schedule: Q01DX009 (ip), vehicle: saline with Tween-80
[13] = dose: 400.0 mg/kg/injection, schedule: Q01DX009 (ip), vehicle: saline with Tween-80
[14] = dose: 0.75 mg/kg/injection, schedule: Q01DX009 (ip), vehicle: saline
[15] = dose: 1.5 mg/kg/injection, schedule: Q01DX009 (ip), vehicle: saline
[16] = dose: 50.0 mg/kg/injection, schedule: Q01DX009 (ip), vehicle: saline with Tween-80
[17] = dose: 3.12 mg/kg/injection, schedule: Q01DX009 (ip), vehicle: Klucel (hydroxypropylcellulose) (HPC)
[18] = dose: 25.0 mg/kg/injection, schedule: Q01DX009 (ip), vehicle: saline
[19] = dose: 50.0 mg/kg/injection, schedule: Q01DX009 (ip), vehicle: saline
[20] = dose: 12.5 mg/kg/injection, schedule: Q01DX009 (ip), vehicle: saline with Tween-80
[21] = dose: 25.0 mg/kg/injection, schedule: Q01DX009 (ip), vehicle: saline with Tween-80
[22] = dose: 6.25 mg/kg/injection, schedule: Q01DX009 (ip), vehicle: saline with Tween-80

Measured: T/C

CC(=O)C12OC1(C)CC1C3CC=C4CC(O)CCC4(C)C3CCC12C (centres undefined)
inactive: [1] 107 % of control | [2] 95 % of control | [3] 105 % of control

CC1(O)C=CC(=O)C=C1
inactive: [4] 110 % of control | [5] 116 % of control | [6] 120 % of control | dose: 50.0 mg/kg/injection, schedule: Q01DX009 (ip), vehicle: water 114 % of control

Nc1nc([Se])c2ncn(C3CC(O)C(CO)O3)c2n1 (centres undefined)
inactive: [7] 105 % of control | [8] 124 % of control | [9] 122 % of control | [10] 111 % of control

N=C(N)c1ccc(/C=C/c2ccc(C(=N)N)cc2)cc1
inactive: dose: 16.0 mg/kg/injection, schedule: Q01DX009 (ip), vehicle: saline with Tween-80 98 % of control | dose: 32.0 mg/kg/injection, schedule: Q01DX009 (ip), vehicle: saline with Tween-80 93 % of control

CCc1cc(C)cc(OC(=O)Nc2ccc(Cl)cc2)c1
inactive: [11] 116 % of control | [12] 87 % of control | [13] 92 % of control

COc1cc(OC)c(/C=C/c2cc[n+](C)c3ccccc23)c(OC)c1
inactive: [14] 105 % of control | [15] 95 % of control | dose: 3.0 mg/kg/injection, schedule: Q01DX009 (ip), vehicle: saline 97 % of control

NNC(=O)Cc1nc2ccccc2[nH]c1=O
inactive: [10] 96 % of control | [1] 96 % of control | [2] 90 % of control

CC[C@H](C)[C@H](NC(=O)OC(C)(C)C)C(=O)ON1C(=O)CCC1=O
inactive: [16] 92 % of control | [11] 97 % of control | [12] 90 % of control

CC(=O)C1=CC(=O)NC(=O)C1C(=O)CC(C)C (centres undefined)
inactive: dose: 1.56 mg/kg/injection, schedule: Q01DX009 (ip), vehicle: Klucel (hydroxypropylcellulose) (HPC) 104 % of control | [17] 89 % of control and 95 % of control | [7] 92 % of control

COc1c2c([n+](C)c3c(OC)cccc13)OC(C(C)C)C2 (centres undefined)
inactive: dose: 0.25 mg/kg/injection, schedule: Q01DX009 (ip), vehicle: saline sonified 102 % of control | dose: 0.5 mg/kg/injection, schedule: Q01DX009 (ip), vehicle: saline sonified 100 % of control | [14] 94 % of control | dose: 1.0 mg/kg/injection, schedule: Q01DX009 (ip), vehicle: saline sonified 102 % of control | [15] 88 % of control | dose: 1.5 mg/kg/injection, schedule: Q04DX003 (ip), vehicle: saline 107 % of control | dose: 3.0 mg/kg/injection, schedule: Q04DX003 (ip), vehicle: saline 89 % of control

CCC(CC)(CO)CO
inactive: [18] 92 % of control | [19] 102 % of control | dose: 100.0 mg/kg/injection, schedule: Q01DX009 (ip), vehicle: saline 104 % of control | dose: 200.0 mg/kg/injection, schedule: Q01DX009 (ip), vehicle: saline 107 % of control | dose: 400.0 mg/kg/injection, schedule: Q01DX009 (ip), vehicle: saline 97 % of control

[Cl][Ge]([Cl])([c]1ccccc1)[c]1ccccc1
inactive: [9] 93 % of control | [10] 100 % of control

CCCCCCCCCCCCCCCC(=O)N(CCCN)C(C)CCCN(CC)CC (centres undefined)
inactive: [8] 105 % of control | [9] 100 % of control | [10] 107 % of control | [1] 101 % of control

O=[N+]([O-])c1ccc([I+]c2ccccc2)cc1
inactive: [8] 115 % of control | [20] 113 % of control | [9] 118 % of control | [21] 112 % of control

CN(C)CC/C=C1/c2ccccc2COc2ccccc21
inactive: dose: 3.12 mg/kg/injection, schedule: Q01DX009 (ip), vehicle: saline 112 % of control | dose: 6.25 mg/kg/injection, schedule: Q01DX009 (ip), vehicle: saline 102 % of control | dose: 12.5 mg/kg/injection, schedule: Q01DX009 (ip), vehicle: saline 105 % of control | [18] 112 % of control | [19] 105 % of control

Cc1ccc(C2CC3c4ccccc4C2C2CCCCN32)cc1 (centres undefined)
inactive: dose: 0.78 mg/kg/injection, schedule: Q01DX009 (ip), vehicle: water 112 % of control | dose: 1.56 mg/kg/injection, schedule: Q01DX009 (ip), vehicle: water 104 % of control | dose: 3.13 mg/kg/injection, schedule: Q01DX009 (ip), vehicle: water 99 % of control and 115 % of control | [4] 107 % of control and 110 % of control | [5] 102 % of control | [6] 98 % of control

ClCC[N-]CC[N-]CCCl.ClCC[N-]CC[N-]CCCl.[O-][Cl+3]([O-])([O-])O.[Zn+2]
inactive: dose: 2.5 mg/kg/injection, schedule: Q01DX009 (ip), vehicle: Klucel (hydroxypropylcellulose) (HPC) 106 % of control | dose: 5.0 mg/kg/injection, schedule: Q01DX009 (ip), vehicle: Klucel (hydroxypropylcellulose) (HPC) 92 % of control | dose: 10.0 mg/kg/injection, schedule: Q01DX009 (ip), vehicle: Klucel (hydroxypropylcellulose) (HPC) 101 % of control | dose: 20.0 mg/kg/injection, schedule: Q01DX009 (ip), vehicle: Klucel (hydroxypropylcellulose) (HPC) 104 % of control

O=[N+]([O-])/C(=C/c1ccccc1)c1ccccc1
inactive: [22] 104 % of control | [20] 95 % of control | [21] 112 % of control

FC(F)(F)c1ccc2c(c1)N(CCCN1CCN(CCOc3ccccc3)CC1)c1ccccc1S2
inactive: dose: 2.0 mg/kg/injection, schedule: Q01DX009 (ip), vehicle: saline 121 % of control

COC(=O)C1C2CC3c4[nH]c5cc(OC)ccc5c4CCN3CC2CC(OC(=O)c2cc(OC)c(OC)c(OC)c2)C1OC (centres undefined)
inactive: [17] 105 % of control | [7] 105 % of control | [8] 110 % of control | [9] 97 % of control | [10] 90 % of control

O=C(/C(=C\c1ccccc1)CN1CCOCC1)c1ccc(Br)cc1
inactive: [20] 91 % of control | [21] 94 % of control | [16] 94 % of control | [11] 89 % of control

O=C1CC2(C(=O)N1CN1CCCCC1)c1ccccc1-c1ccccc12
inactive: [8] 114 % of control | [10] 112 % of control | [1] 112 % of control | [2] 112 % of control

Cc1ccc2c(C)c3ccc4ccccc4c3c[n+]2c1
inactive: dose: 10.0 mg/kg/injection, schedule: Q01DX009 (ip), vehicle: saline with Tween-80 104 % of control | dose: 20.0 mg/kg/injection, schedule: Q01DX009 (ip), vehicle: saline with Tween-80 106 % of control | dose: 40.0 mg/kg/injection, schedule: Q01DX009 (ip), vehicle: saline with Tween-80 100 % of control

O=C1CC2C=CCC12 (centres undefined)
inactive: [11] 107 % of control | [12] 100 % of control | [13] 91 % of control

CC1(C)N=C(N)N=C(N)N1c1cccc(CCCCc2cccc(S(=O)(=O)F)c2)c1
inactive: [22] 115 % of control | [20] 96 % of control | [21] 87 % of control

Cc1ccc(NS(=O)(=O)c2ccc(F)cc2)cc1C
inactive: [1] 96 % of control | [2] 100 % of control | [3] 93 % of control
